The record followed here is ChEMBL document CHEMBL1148502, “Carbonic anhydrase inhibitors: inhibition of the cytosolic human isozyme VII with anions” (Bioorg Med Chem Lett, 2006).

Values joined by “and” are separate entries in the source; they are usually repeats but may differ in a detail not shown here. Equal values may be shown once.

One assay addresses Carbonic anhydrase 7 (Homo sapiens, UniProt P43166).
A short description of assay [1]: Selectivity for human CA7 over murine CA13.
For assay [2], the species on record is Homo sapiens. Nature of the assay: Selectivity for human CA7 over human CA2.
Assay [3] is filed under the species Homo sapiens. Kind of assay: Selectivity for human CA7 over human CA1.

Chain of Carbonic anhydrase 7 (P43166 whole entry): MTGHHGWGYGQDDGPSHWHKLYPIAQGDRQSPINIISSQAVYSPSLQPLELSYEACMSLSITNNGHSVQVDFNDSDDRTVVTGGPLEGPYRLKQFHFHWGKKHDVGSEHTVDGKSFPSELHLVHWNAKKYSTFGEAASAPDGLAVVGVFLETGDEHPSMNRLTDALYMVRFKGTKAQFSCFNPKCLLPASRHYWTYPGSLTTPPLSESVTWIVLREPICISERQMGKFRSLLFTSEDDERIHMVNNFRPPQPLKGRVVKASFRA
Description for Carbonic anhydrase 7: Inhibition of human recombinant CA7

In turn, `O=S(=O)(O)O` [SULFURIC ACID] had a Ki on Carbonic anhydrase 7 of 1.38 mM. That is a millimolar value.
The same measure, in the same setting: then `N#CS` [THIOCYANIC ACID], with 0.17 mM; and `N#CO` [CYANATE], with 15.2 mM.
Same read-out and setting: the figure for `S` [HYDROGEN SULFIDE] is 1.24 mM; for `Br` [BROMIDE] it is 1.06 mM; for `I` [IODIDE] it is 0.25 mM.
Regarding `O=NO` [NITROUS ACID], affinity at Carbonic anhydrase 7 was put at a Ki of 1.78 mM.
As for `O=C(O)O` [BICARBONATE], the Ki on Carbonic anhydrase 7 was 0.27 mM and 0.16 mM.
For the compound `Cl` [HYDROCHLORIC ACID], the Ki on Carbonic anhydrase 7 came to 1.84 mM.
Consider `O=S(O)O` [SULFUROUS ACID], for which the affinity at Carbonic anhydrase 7 corresponds to a Ki of 7.3 mM.
At Carbonic anhydrase 7, `F` [FLUORIDE ION] registered a Ki of 1.24 mM. This Ki lies about 5.9-fold lower than the previous one.
Compound `O=[N+]([O-])O` [NITRIC ACID] returned a Ki at Carbonic anhydrase 7 of 0.19 mM.
`OB(O)c1ccccc1` [PHENYLBORONIC ACID]: the Selectivity ratio in assay [1] was found to be 343; in the assay filed under Homo sapiens [2], 2780; in the assay listed under Homo sapiens [3], 7060. Further, the Ki at Carbonic anhydrase 7 was determined as 0.0083 mM.
For the compound `NS(=O)(=O)O` [SULFAMATE], the Ki at Carbonic anhydrase 7 turned out to be 0.0095 mM.

What is called Ki is the dissociation constant of the complex between target and ligand, obtained from inhibition or displacement. A high value points to weaker binding.
